Laboratory results taken from ChEMBL document CHEMBL3091426, “Synthesis and antitumor-evaluation of 1,3-selenazole-containing 1,3,4-thiadiazole derivatives” (Bioorg Med Chem Lett, 2013).

Assays:
[1] = system: L1210; assay: Antiproliferative activity against mouse L1210 cells by CCK-8 assay; format: functional, cell-based
[2] = system: MCF7; assay: Antiproliferative activity against human MCF7 cells by CCK-8 assay; format: functional, cell-based

SMILES | IC50 [1] [µM] | IC50 [2] [µM]
COc1cc(/C=N/c2nnc(SCc3c[se]c(-c4ccccc4)n3)s2)ccc1O | > 100 | 15
Oc1ccc(/C=N/c2nnc(SCc3c[se]c(-c4ccccc4)n3)s2)cc1 | > 100 | 31.1
Oc1ccc(/C=N/c2nnc(SCc3c[se]c(-c4ccccc4)n3)s2)c(O)c1 | 62.2 | 8.51
CN(C)c1ccc(/C=N/c2nnc(SCc3c[se]c(-c4ccccc4)n3)s2)cc1 | > 100 | 80.3
O=C(O)c1c[se]c(-c2ccccc2)n1 | 60.1 | 16.6
O=[N+]([O-])c1ccc(/C=N/c2nnc(SCc3c[se]c(-c4ccccc4)n3)s2)cc1 | > 100 | 49.1

Other lines, results leading:

IC50 [1] [µM] | IC50 [2] [µM] | SMILES
46.5 | 14.8 | Brc1ccc(/C=N/c2nnc(SCc3c[se]c(-c4ccccc4)n3)s2)cc1
56.9 | 10.2 | Fc1ccc(/C=N/c2nnc(SCc3c[se]c(-c4ccccc4)n3)s2)cc1
46.5 | 25.6 | C(=N\c1nnc(SCc2c[se]c(-c3ccccc3)n2)s1)/c1ccccc1
58.6 | 7.55 | Cc1ccc(/C=N/c2nnc(SCc3c[se]c(-c4ccccc4)n3)s2)cc1
50 | 4.02 | Clc1ccc(/C=N/c2nnc(SCc3c[se]c(-c4ccccc4)n3)s2)cc1
38.7 | 15.2 | Oc1ccccc1/C=N/c1nnc(SCc2c[se]c(-c3ccccc3)n2)s1
